# Experimental data published in patent US9884063B2, “Amido-substituted azole compounds” (Bayer Pharma Aktiengesellschaft, priority 2014, dated 2018).
# Experiments:
# [1] = tested on: HEK293 FOP control reporter cell line; test: HEK293 FOP Assay (FOP control vector luciferase reporter); format: cell-based; conditions: Homo sapiens
# Summary of the method: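 Stable HEK293 line carrying the FOP vector (randomized, non-functional TCF sites; Geneticin-selected) was run in parallel with the TOP line. Cells were plated 24 h ahead at 10000/well and given recombinant human Wnt-3a at 2500–5 ng/ml. Compounds were tested at 50 μM–15 nM (3.16-fold steps) in CAFTY buffer, pH 7.4, with 2 mM Ca2+ and 0.01% BSA.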
# TNKS1 = target: T1, TNKS1 (Homo sapiens, UniProt O95271); test: Modified TNKS1 Assay 2 (auto-parsylation, [3H]-NAD+ SPA); format: biochemical; conditions: 6 nM TNKS1, 96 well
# T1 sequence (O95271 1-1327): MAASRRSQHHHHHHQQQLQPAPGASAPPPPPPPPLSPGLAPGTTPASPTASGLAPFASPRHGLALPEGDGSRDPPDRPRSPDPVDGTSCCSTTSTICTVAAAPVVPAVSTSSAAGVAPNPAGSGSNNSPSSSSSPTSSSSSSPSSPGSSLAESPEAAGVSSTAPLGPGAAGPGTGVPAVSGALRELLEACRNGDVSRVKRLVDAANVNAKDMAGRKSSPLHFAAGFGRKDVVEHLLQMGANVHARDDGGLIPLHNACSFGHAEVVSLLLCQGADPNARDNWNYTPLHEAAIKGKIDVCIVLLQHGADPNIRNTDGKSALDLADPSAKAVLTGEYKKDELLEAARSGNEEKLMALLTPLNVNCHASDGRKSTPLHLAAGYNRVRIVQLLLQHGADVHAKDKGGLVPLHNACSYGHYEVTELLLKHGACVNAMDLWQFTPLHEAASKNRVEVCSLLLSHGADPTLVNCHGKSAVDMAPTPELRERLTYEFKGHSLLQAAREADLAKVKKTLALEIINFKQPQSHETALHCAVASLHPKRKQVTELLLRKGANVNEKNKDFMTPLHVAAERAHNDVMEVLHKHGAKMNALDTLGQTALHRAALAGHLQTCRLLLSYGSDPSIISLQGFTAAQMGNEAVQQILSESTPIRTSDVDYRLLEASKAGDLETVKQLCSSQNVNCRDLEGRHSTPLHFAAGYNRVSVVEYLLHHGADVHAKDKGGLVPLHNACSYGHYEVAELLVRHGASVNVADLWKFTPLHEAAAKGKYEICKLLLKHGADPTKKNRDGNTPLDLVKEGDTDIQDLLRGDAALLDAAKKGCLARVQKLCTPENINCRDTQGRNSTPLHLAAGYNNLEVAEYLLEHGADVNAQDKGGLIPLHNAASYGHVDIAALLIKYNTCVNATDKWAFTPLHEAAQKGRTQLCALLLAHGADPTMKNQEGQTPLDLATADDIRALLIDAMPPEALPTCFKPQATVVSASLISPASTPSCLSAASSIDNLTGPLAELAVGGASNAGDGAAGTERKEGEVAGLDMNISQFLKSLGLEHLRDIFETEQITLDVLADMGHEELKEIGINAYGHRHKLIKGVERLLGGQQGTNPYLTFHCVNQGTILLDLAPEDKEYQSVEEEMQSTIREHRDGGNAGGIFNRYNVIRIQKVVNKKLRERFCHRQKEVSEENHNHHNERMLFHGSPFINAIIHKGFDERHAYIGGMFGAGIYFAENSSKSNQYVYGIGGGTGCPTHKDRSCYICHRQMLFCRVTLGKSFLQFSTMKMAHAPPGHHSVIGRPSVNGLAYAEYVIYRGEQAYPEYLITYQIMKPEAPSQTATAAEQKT
# [2] = HEK293 FOP control reporter cell line, 16 hours incubation, compound dilution series 50 μM to 15 nM
# [3] = HEK293 FOP control reporter cells, 16 hours, luciferase, dilution series from 50 μM
SMILES,IC50 (TNKS1),"IC50 [1, 2]","IC50 [1, 3]"
"CC1(C)CC(NC(=O)c2nc[nH]c2C(=O)Nc2ccc(NC(=O)c3ccc(F)cc3Cl)cc2)CCO1 (stereo not drawn) [Example 391, N^5-{4-[(2-chloro-4-fluorobenzoyl)amino]phenyl}-N^4-(2,2-dimethyltetrahydro-2H-pyran-4-yl)-1H-imidazole-4,5-dicarboxamide]",0.4 µM,27 µM,
"CCc1ccccc1C(=O)Nc1ccc(NC(=O)c2[nH]cnc2C(=O)NC)cc1 [Example 39, N^5-{4-[(2-ethylbenzoyl)amino]phenyl}-N^4-methyl-1H-imidazole-4,5-dicarboxamide]",2.7 µM,5.5 µM,5.5 µM
"CNC(=O)c1nc[nH]c1C(=O)Nc1ccc(NC(=O)c2ccccc2)cc1 [Example 21, N^5-[4-(benzoylamino)phenyl]-N^4-methyl-1H-imidazole-4,5-dicarboxamide]",> 10 µM,35 µM,35 µM

# These reach a lower IC50 (TNKS1). Values come first.
IC50 (TNKS1),SMILES,"IC50 [1, 2]","IC50 [1, 3]"
0.02 µM,"O=C(Nc1ccc(NC(=O)c2nc[nH]c2C(=O)NCCN2CCC(F)(F)C2)cc1)c1ccc(F)cc1Cl [Example 279, N^4-{4-[(2-chloro-4-fluorobenzoyl)amino]phenyl}-N^5-[2-(3,3-difluoropyrrolidin-1-yl)ethyl]-1H-imidazole-4,5-dicarboxamide]",12 µM,
0.08 µM,"CCN1CCC[C@@H]1CNC(=O)c1nc[nH]c1C(=O)Nc1ccc(NC(=O)c2ccc(F)cc2Cl)cc1 [Example 413, N^5-{4-[(2-chloro-4-fluorobenzoyl)amino]phenyl}-N^4-{[(2R)-1-ethylpyrrolidin-2-yl]methyl}-1H-imidazole-4,5-dicarboxamide]",26 µM,
